This passage reports Emax and EC50 results from patent publication US20220071971A1, “MACROCYCLIC COMPOUNDS AND THEIR USE IN THE TREATMENT OF DISEASE” (NOVARTIS AG, priority 2018, published 2022).

This experiment concerns the target T1, delF508-CFTR (Homo sapiens, UniProt P13569, DEL508-508).
T1 construct: expressed in transfected cells
Nature of the experiment: Measurement of delF508-CFTR-HRP surface expression in CFBE41o- cells. The format is cell-based. The following applies: for Emax: CFBE41o-, efficacy relative to reference compound 3-(6-(1-(2,2-difluorobenzo[d][1,3]dioxol-5-yl)cyclopropane-1-carboxamido)-3-methylpyridin-2-yl)benzoic acid, read-out: DelF508-CFTR-HRP Amax %; for EC50: HRP-tagged delF508-CFTR surface expression, CFBE41o- cells, 24 h with compound, 10-point curve, highest concentration 10 μM. The source says: Measurement of deIF508-CFTR-HRP Surface Expression in CFBE41o-Cells
This assay quantifies the cell surface expressions of the mutant CFTR channel using an extracellular HRP tag.
A cellular assay was developed to measure surface expression of horseradish peroxidase (HRP) tagged delF508-CFTR in the human bronchial epithelial immortalized CFBE41o-cell line (Phuan, P. W., et al, (2014) Molecular Pharmacology 86:42-51). Specifically, the HRP sequence was inserted into the fourth extracellular loop of delF508-CFTR and stably expressed in CFBE41o-cells. Cells were seeded in 384 well plate at a density of 5000 cells/well and incubated at 37° C. for 12 to 24 hours in medium (Gibco MEM #11095, 10% FBS, 10 mM HEPES, […], 200 μg/mL G418, 3 μg/mL Puromycin). The delF508-CFTR-HRP expression was induced with 500 ng/mL doxycycline (Sigma D-9891, dissolved in H2O and sterile filtered) in medium and the cells were incubated at 37° C. for 48 h. Old medium was removed and fresh medium was added containing 500 ng/mL doxycycline and unknown test compound at required test concentration in DMSO, not exceeding 0.5% final DMSO concentration. The highest concentration tested was 10 μM with a 10-point concentration response curve using a 3-fold dilution. After addition of compounds, the cells were incubated for 24 h at 37° C. On the final day, cells were washed four times in PBS containing 1 mM MgCl2 and 0.1 mM CaCl2. HRP-Substrate (SuperSignal ELISA Pico, Fisher #37069) 20 μl/well was added and the luminescence signal was determined (Viewlux, Perkin Elmer). Light was emitted upon addition of exogenous HRP-Substrate only when delF508-CFTR-HRP reached the cell surface and the HRP tag was accessible to the HRP-Substrate (note: HRP-Substrate cannot cross the lipid bilayer to reach delF508-CFTR-HRP misfolded within the cell).
The median activity for the lowest concentration of the compounds on each assay plate was calculated and this value was used to normalize the signal for each well on the respective plate. Three replicates at each concentrations for every compound were run to determine one EC50. The median value was determined and used to calculate compound activities as described below. Effective half maximal values (EC50) were calculated for each compound by performing logistic regression on measured dose-response data points using the equation: […]
where “Y” is the observed activity, “Bottom” is the lowest observed value, “Top” is the highest observed value, and the “Hill coefficient” gives the largest absolute value of the slope. The curve fitting is carried out by a curve fitting program implemented at GNF using Matlab (Mathworks).
The dose response curves also were used to calculate Fold Change (FC) using the equation: […]
Compound efficacy relative to the reference compound 3-(6-(1-(2,2-difluorobenzo[d][1,3]dioxol-5-yl)cyclopropane-1-carboxamido)-3-methylpyridin-2-yl)benzoic acid was determined using the following formula: […]

The structures appear in SMILES notation.

T1 sequence (P13569 with tags, fused parts or gaps DEL508-508): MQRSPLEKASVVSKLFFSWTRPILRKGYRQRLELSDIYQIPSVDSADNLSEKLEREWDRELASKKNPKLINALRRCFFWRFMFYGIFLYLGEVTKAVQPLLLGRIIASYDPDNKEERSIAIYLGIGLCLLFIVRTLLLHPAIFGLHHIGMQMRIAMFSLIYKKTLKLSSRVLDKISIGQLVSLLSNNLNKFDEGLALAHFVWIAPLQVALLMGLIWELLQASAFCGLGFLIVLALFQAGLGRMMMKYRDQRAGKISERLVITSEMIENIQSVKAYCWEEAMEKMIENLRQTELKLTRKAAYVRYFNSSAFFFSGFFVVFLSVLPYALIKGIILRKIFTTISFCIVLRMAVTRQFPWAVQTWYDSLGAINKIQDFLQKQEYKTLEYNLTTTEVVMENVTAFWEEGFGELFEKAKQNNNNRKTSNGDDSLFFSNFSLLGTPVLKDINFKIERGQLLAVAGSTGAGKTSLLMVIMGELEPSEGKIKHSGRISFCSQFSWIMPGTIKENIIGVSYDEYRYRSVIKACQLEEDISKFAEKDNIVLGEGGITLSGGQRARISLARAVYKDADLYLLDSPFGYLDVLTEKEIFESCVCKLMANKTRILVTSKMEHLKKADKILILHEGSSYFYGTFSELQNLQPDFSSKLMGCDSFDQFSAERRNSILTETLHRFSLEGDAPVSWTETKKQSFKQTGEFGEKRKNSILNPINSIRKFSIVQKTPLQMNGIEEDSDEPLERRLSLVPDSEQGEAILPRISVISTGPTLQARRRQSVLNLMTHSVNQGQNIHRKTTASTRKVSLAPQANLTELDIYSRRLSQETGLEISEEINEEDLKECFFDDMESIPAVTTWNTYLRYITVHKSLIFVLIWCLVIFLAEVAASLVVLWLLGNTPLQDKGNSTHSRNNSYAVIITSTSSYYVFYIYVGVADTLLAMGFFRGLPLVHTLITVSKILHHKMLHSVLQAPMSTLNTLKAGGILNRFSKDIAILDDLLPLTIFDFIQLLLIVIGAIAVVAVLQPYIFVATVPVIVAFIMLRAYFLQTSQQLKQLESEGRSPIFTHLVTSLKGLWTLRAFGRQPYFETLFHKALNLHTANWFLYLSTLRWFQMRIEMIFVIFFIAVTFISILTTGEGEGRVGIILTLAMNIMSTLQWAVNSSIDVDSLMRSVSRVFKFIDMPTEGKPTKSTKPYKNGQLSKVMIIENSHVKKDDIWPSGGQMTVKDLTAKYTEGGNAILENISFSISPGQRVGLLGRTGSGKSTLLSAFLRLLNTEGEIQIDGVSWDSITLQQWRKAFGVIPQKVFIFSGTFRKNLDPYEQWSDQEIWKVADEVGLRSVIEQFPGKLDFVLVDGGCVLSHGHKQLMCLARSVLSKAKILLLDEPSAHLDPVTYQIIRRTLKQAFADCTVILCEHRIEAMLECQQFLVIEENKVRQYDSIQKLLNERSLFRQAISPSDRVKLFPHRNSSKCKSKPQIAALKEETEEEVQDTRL

Consider `O=S1(=O)Nc2ccc(C(F)(F)F)c(n2)-c2cc(F)ccc2OCCCCN(CCCO)c2cccc1n2` [Compound 22, 1^5-fluoro-6-(3-hydroxypropyl)-2^3-(trifluoromethyl)-11-oxa-4-thia-3,6-diaza-2,5(2,6)-dipyridina-1(1,2)-benzenacycloundecaphane 4,4-dioxide], for which the Emax came to 666% and the EC50 (as a rule, the concentration giving half of the maximal effect) is 603 nM.

As to `O=S1(=O)Nc2ccc(C(F)(F)F)c(n2)-c2ccccc2CCCCCN(CCN2CCOCC2)c2cccc1n2` [Compound 13, 6-(2-morpholinoethyl)-2^3-(trifluoromethyl)-4-thia-3,6-diaza-2,5(2,6)-dipyridina-1(1,2)-benzenacycloundecaphane 4,4-dioxide], the Emax came to 601% and the EC50 was found to be 393 nM.

Consider `O=C(O)CCN1CCCCCCc2ccc(F)cc2-c2nc(ccc2C(F)(F)F)NS(=O)(=O)c2cccc1n2` [Compound 85, 3-(1^5-fluoro-4,4-dioxido-2^3-(trifluoromethyl)-4-thia-3,6-diaza-2,5(2,6)-dipyridina-1(1,2)-benzenacyclododecaphane-6-yl)propanoic acid], for which the EC50 was found to be 714 nM.

As to `O=S1(=O)Nc2ccc(C(F)(F)F)c(n2)-c2ccccc2CCCCCNc2cccc1n2` [Compound 118, 2^3-(trifluoromethyl)-4-thia-3,6-diaza-2,5(2,6)-dipyridina-1(1,2)-benzenacycloundecaphane 4,4-dioxide], the Emax is 705% and the EC50 amounted to 511 nM.

Regarding `O=C(O)CCCCN1CCCCCCc2ccccc2-c2nc(ccc2C(F)(F)F)NS(=O)(=O)c2cccc1n2` [Compound 78, 5-(4,4-dioxido-2^3-(trifluoromethyl)-4-thia-3,6-diaza-2,5(2,6)-dipyridina-1(1,2)-benzenacyclododecaphane-6-yl)pentanoic acid], the EC50 is 293 nM.

On to `O=CCCCN1CCCCCc2ccccc2-c2nc(ccc2C(F)(F)F)NS(=O)(=O)c2cccc1n2` [Compound 73, 4-(4,4-dioxido-2^3-(trifluoromethyl)-4-thia-3,6-diaza-2,5(2,6)-dipyridina-1(1,2)-benzenacycloundecaphane-6-yl)butanal], for which the Emax worked out at 764% and the EC50 is 439 nM.

For `O=C(O)CCCN1CCCCCCCCCc2ccccc2-c2nc(ccc2C(F)(F)F)NS(=O)(=O)c2cccc1n2` [Compound 66, 4-(4,4-dioxido-2^3-(trifluoromethyl)-4-thia-3,6-diaza-2,5(2,6)-dipyridina-1(1,2)-benzenacyclopentadecaphane-6-yl)butanoic acid], the EC50 was 224 nM.

On to `O=S1(=O)Nc2ccc(Cl)c(n2)-c2ccccc2CCCCOc2cccc1n2` [Compound 112, 2^3-chloro-6-oxa-4-thia-3-aza-2,5(2,6)-dipyridina-1(1,2)-benzenacyclodecaphane 4,4-dioxide], for which the Emax was 644% and the EC50 was found to be 2600 nM.

As to `O=S1(=O)Nc2ccc(C(F)(F)F)c(n2)-c2ccccc2CCCCCN(CCCCO)c2cccc1n2` [Compound 25, 6-(4-hydroxybutyl)-2^3-(trifluoromethyl)-4-thia-3,6-diaza-2,5(2,6)-dipyridina-1(1,2)-benzenacycloundecaphane 4,4-dioxide], the Emax came out at 932% and the EC50 was 267 nM.

On to `Cc1ccc2nc1-c1ccccc1CCCCCN(CCCC(=O)O)c1cccc(n1)S(=O)(=O)N2` [Compound 72, 4-(2^3-methyl-4,4-dioxido-4-thia-3,6-diaza-2,5(2,6)-dipyridina-1(1,2)-benzenacycloundecaphane-6-yl)butanoic acid], for which the Emax was determined as 396% and the EC50 was determined as 2430 nM.

`O=C(O)CCN1CCCCCCCc2ccccc2-c2nc(ccc2C(F)(F)F)NS(=O)(=O)c2cccc1n2` [Compound 62, 3-(4,4-dioxido-2^3-(trifluoromethyl)-4-thia-3,6-diaza-2,5(2,6)-dipyridina-1(1,2)-benzenacyclotridecaphane-6-yl)propanoic acid]: the EC50 came out at 403 nM.

Regarding `O=S1(=O)Nc2ccc(C(F)(F)F)c(n2)-c2cccnc2O[C@H]2CCC[C@H](CCC2)Oc2cccc1n2` [Compound 104, (4^1s,4^5s)-1^3-(trifluoromethyl)-3,5-dioxa-7-thia-8-aza-1,6(2,6),2(3,2)-tripyridina-4(1,5)-cyclooctanacyclooctaphane 7,7-dioxide], the Emax amounted to 205% and the concentration giving a half-maximal response (EC50) was determined as 226 nM.

In the case of `O=S1(=O)Nc2ccc(C(F)(F)F)c(n2)-c2cc(F)ccc2CCCCCN(CCCO)c2cccc1n2` [Compound 26, 1^5-fluoro-6-(3-hydroxypropyl)-2^3-(trifluoromethyl)-4-thia-3,6-diaza-2,5(2,6)-dipyridina-1(1,2)-benzenacycloundecaphane 4,4-dioxide], the 50% effective concentration (EC50) was 668 nM.

As for `O=S1(=O)Nc2ccc(C(F)(F)F)c(n2)-c2cc(F)ccc2CCCCCNc2cccc1n2` [Compound 31, 1^5-fluoro-2^3-(trifluoromethyl)-4-thia-3,6-diaza-2,5(2,6)-dipyridina-1(1,2)-benzenacycloundecaphane 4,4-dioxide], the Emax came out at 580% and the EC50 stood at 614 nM.

For the compound `O=C(O)CCCN1CCCCc2ccccc2-c2nc(ccc2Cl)NS(=O)(=O)c2cccc1n2` [Compound 91, 4-(2^3-chloro-4,4-dioxido-4-thia-3,6-diaza-2,5(2,6)-dipyridina-1(1,2)-benzenacyclodecaphane-6-yl)butanoic acid], the Emax was determined as 721% and the EC50 came out at 2760 nM.

Turning to `O=C(O)CCC1CCCCc2ccccc2-c2nc(ccc2C(F)(F)F)NS(=O)(=O)c2cccc(n2)O1` (centres unmarked) [Compound 110, 3-(4,4-dioxido-2^3-(trifluoromethyl)-6-oxa-4-thia-3-aza-2,5(2,6)-dipyridina-1(1,2)-benzenacycloundecaphane-7-yl)propanoic acid], the Emax turned out to be 170% and the EC50 came out at 477 nM.

Regarding `O=S1(=O)Nc2ccc(C(F)(F)F)c(n2)-c2ccccc2CCCCCN(CCN2CC(O)C2)c2cccc1n2` [Compound 124, 6-(2-(3-hydroxyazetidin-1-yl)ethyl)-2^3-(trifluoromethyl)-4-thia-3,6-diaza-2,5(2,6)-dipyridina-1(1,2)-benzenacycloundecaphane 4,4-dioxide], the Emax was determined as 382% and the EC50 came out at 1640 nM.

Turning to `Cc1ccnc2c1-c1nc(ccc1Cl)NS(=O)(=O)c1cccc(n1)NCCCCCN2` [Compound 106, 2^3-chloro-1^4-methyl-4-thia-3,6,12-triaza-1(3,2),2,5(2,6)-tripyridinacyclododecaphane 4,4-dioxide], the Emax came out at 287% and the 50% effective concentration (EC50) came to 1410 nM.

For `CN1CCCN(C)c2ncccc2-c2nc(ccc2C(F)(F)F)NS(=O)(=O)c2cccc1n2` [Compound 9, 6,10-dimethyl-2^3-(trifluoromethyl)-4-thia-3,6,10-triaza-1(3,2),2,5(2,6)-tripyridinacyclodecaphane 4,4-dioxide], the Emax is 367% and the EC50 was found to be 1710 nM.

For the compound `O=S1(=O)Nc2ccc(C(F)(F)F)c(n2)-c2ccccc2CCCCCN(C[C@H](O)[C@@H](O)CO)c2cccc1n2` [Compound 129, 2^3-(trifluoromethyl)-6-((2S,3S)-2,3,4-trihydroxybutyl)-4-thia-3,6-diaza-2,5(2,6)-dipyridina-1(1,2)-benzenacycloundecaphane 4,4-dioxide], the Emax was 506% and the EC50 amounted to 265 nM.

On to `O=S1(=O)Nc2ccc(C(F)(F)F)c(n2)-c2ccccc2CCCCCCN(CCCO)c2cccc1n2` [Compound 21, 6-(3-hydroxypropyl)-2^3-(trifluoromethyl)-4-thia-3,6-diaza-2,5(2,6)-dipyridina-1(1,2)-benzenacyclododecaphane 4,4-dioxide], for which the Emax worked out at 941% and the EC50 turned out to be 179 nM.

For the compound `O=S1(=O)Nc2ccc(C(F)(F)F)c(n2)-c2ccccc2CCCCCCCN(CCCCCO)c2cccc1n2` [Compound 41, 6-(5-hydroxypentyl)-2^3-(trifluoromethyl)-4-thia-3,6-diaza-2,5(2,6)-dipyridina-1(1,2)-benzenacyclotridecaphane 4,4-dioxide], the EC50 came to 187 nM.
